The source of these data is patent US20250296909A1, “NOVEL BENZENE DERIVATIVE AND IMMUNOSUPPRESSION-RELATED USE THEREOF” (PROVIBIO CO., LTD., priority 2021, published 2025).

Read-outs that look alike come from different tables or passages of the source.

Data set [1] relates to T lymphocyte cell line Jurkat E6-1. In words: Cytotoxicity experiment (CCK-8, relative cell survival). The note with it: 24 hours, untreated cells = 100%. It is filed as cell-based. As to the method: To evaluate the cytotoxicity of the compound according to the present invention, the following experiment was conducted.
The T lymphocyte cell line Jurkat E6-1, purchased from the Korean Cell Line Bank, was cultured in RPMI-1640 medium comprising 10% FBS, 100 U/mL penicillin, and 100 μg/mL streptomycin. After culturing, the cells were harvested and centrifuged at 1,300 rpm for 5 minutes. After removal of the supernatant, the cells were resuspended in the same medium at a concentration of approximately 2.2×10^5 cells/mL, and 90 μL of the cell suspension was distributed per well into a 96-well plate (Costar 96 well cell culture plate, Corning). After treating 10 μL of each compound at different concentrations onto the respective wells of the plate, it was cultured for 24 hours at 37° C. in a 5% CO2 incubator. Subsequently, 10 μL of CCK-8 was added to each well, and it was cultured again for 2 hours at 37° C. in a 5% CO2 incubator. Absorbance was then measured at 450 nm to determine the relative cell survival rate compared to untreated cells, as shown in Table 4.
The values listed in Table 4 represent the relative cell survival rates in the groups treated with each compound at different concentrations, with the cell survival rate of untreated cells set as 100%.

A further data set concerns spleen T cells. In words: T cell proliferation inhibition (CFSE, FACS), CD3/CD28-activated spleen T cells. It is filed as cell-based, C57BL/6 mice. Particulars: for inhibition at 10 µM / inhibition at 30 µM / inhibition at 50 µM: Mus musculus, T-cell, read-out: Proliferation inhibition rate (%). How it is done: To investigate whether the compounds obtained in the Preparation Example have an inhibitory effect on T cell proliferation, the T cell proliferation was determined ex vivo using the fluorescent dye carboxyfluorescein diacetate succinimidyl ester (CFSE), which binds to intracellular molecules by covalent bonds.
Spleens were harvested and minced from C57BL/6 mice at 7 weeks of age, and then single cells were isolated using a strainer (40 μm pore size, SPL). Red blood cells were removed using ACK (Ammonium-Chloride-Potassium) lysis buffer to isolate only leukocytes. Subsequently, CD90.2 microbeads (130-121-278, Miltenyi Biotech.) were added, and subjected to react at 4° C. for 20 minutes. After that, spleen T cells were isolated using a MACS Magnetic Stand and LS column. The isolated T cells from the spleen were resuspended in 1 mL of Free media (RPMI-1640+200 U/mL penicillin+200 μg/mL streptomycin), followed by the addition of 0.3 μL of CFSE (10 mM), and reacted at 37° C. for 5 minutes. Subsequently, 10 mL of Free media was added to stop the reaction, and the cells were centrifuged to obtain the cell pellet. RPMI 1640 medium containing 10% FBS, 100 U/mL penicillin, and 100 μg/mL streptomycin was added to suspend the cells, and 2×10^5 cells per well were seeded into a 96-well plate and T cells were activated by treatment with CD3 and CD28 antibodies (each at 0.5 μg/mL).
The compound diluted in DMSO was treated in triplicate at concentrations of 10 μM, 30 μM, and 50 μM, respectively. After incubation at 37° C. with 5% CO2 for 3 days, cell proliferation levels were determined using a FACS Canto machine.
In the FACS graph of FIG. 1, the y-axis represents the quantity (number) of cells, while the x-axis represents the fluorescence level of the cells. […] This reduction in CFSE fluorescence results in a leftward shift along the x-axis in the graph. This indicates cell proliferation.
To collectively indicate the proliferation inhibition rate for the experimental results, the relative value of the proliferation amount after compound administration to the proliferation amount after CD3/CD28+DMSO administration was calculated. Subsequently, it was converted into an inhibition amount and expressed as a percentage, thereby determining the proliferation inhibition rate. Specifically, the proliferation inhibition rate was calculated as follows: […]

The mark [2] stands for this setting: 72 h, Table 2, 10 μM, 3 days, relative to CD3/CD28+DMSO.
[3] abbreviates: 72 h, Table 2, 30 μM, 3 days, relative to CD3/CD28+DMSO.
Where [4] appears, read: 72 h, Table 2, 50 μM, 3 days, relative to CD3/CD28+DMSO.

With `CCCCCCCCCCCCNC(=O)c1ccccc1-n1cccc1` [Compound 84], the “Relative cell survival rate (%)” value is 96% in data set [1] (10 μM), 94% in data set [1] (20 μM), 96% in data set [1] (30 μM) and 94% in data set [1] (50 μM). Also, the inhibition at 10 µM with spleen T cells (setting [2]) was 89%. For the same compound, in the data set with spleen T cells (setting [3]), the inhibition at 30 µM turned out to be 96%. Also, the inhibition at 50 µM with spleen T cells (setting [4]) was 100%. For the same compound, in the data set on spleen T cells (concentrations ranging from 10 to 30 μM), the “cell proliferation read by FACS (FIG. 2)” value is reported as “inhibition of cell proliferation”.
As for `CCCCCCCCCCCCNC(=O)c1cccnc1Cl` [Compound 13], the “Relative cell survival rate (%)” value in data set [1] (10 μM) stood at 95%; in data set [1] (20 μM) it was 71%; in data set [1] (30 μM) it was 70%; in data set [1] (50 μM), 57%. The inhibition at 10 µM in the data set with spleen T cells (setting [2]) was found to be 10%. Besides, the inhibition at 30 µM in the data set on spleen T cells (setting [3]) worked out at 48%. In the data set on spleen T cells (setting [4]), the inhibition at 50 µM came to 100%.
With `CCCCCCCCCCCCNC(=O)c1cccc(Cl)c1N` [Compound 29], the “Relative cell survival rate (%)” value in data set [1] (10 μM) was 107%; in data set [1] (20 μM), 80%; in data set [1] (30 μM) it was 77%; in data set [1] (50 μM), 60%. For the same compound, the inhibition at 10 µM in the data set on spleen T cells (setting [2]) was 5%. Also, the inhibition at 30 µM with spleen T cells (setting [3]) is 33%. Moreover, the inhibition at 50 µM in the data set on spleen T cells (setting [4]) was 65%.
`CCCCCCCCCCCCNC(=O)c1cnccc1N` [Compound 71]: the “Relative cell survival rate (%)” value in data set [1] (10 μM) is listed as 101%; in data set [1] (20 μM), 94%; in data set [1] (30 μM), 92%; in data set [1] (50 μM), 88%. Further, the inhibition at 10 µM in the data set on spleen T cells (setting [2]) was found to be 100%. For the same compound, in the data set on spleen T cells (setting [3]), the inhibition at 30 µM worked out at 100%. Moreover, the inhibition at 50 µM in the data set with spleen T cells (setting [4]) was 100%.
As to `CCCCCCCCCCCCNC(=O)c1c(F)cccc1[N+](=O)[O-]` [Compound 64], the “Relative cell survival rate (%)” value in data set [1] (10 μM) was 91%; in data set [1] (20 μM), 87%; in data set [1] (30 μM), 87%; in data set [1] (50 μM) it was 87%. In addition, the inhibition at 10 µM in the data set with spleen T cells (setting [2]) was determined as 79%. Further, the inhibition at 30 µM in the data set with spleen T cells (setting [3]) worked out at 100%. Moreover, the inhibition at 50 µM in the data set on spleen T cells (setting [4]) came out at 100%.
`CCCCCCCCCCCC(=O)NCc1ccccc1Br` [Compound 43]: the “Relative cell survival rate (%)” value in data set [1] (10 μM) is reported as 101%; in data set [1] (20 μM), 104%; in data set [1] (30 μM), 108%; in data set [1] (50 μM) it was 108%. Also, the inhibition at 10 µM with spleen T cells (setting [2]) is 27%. In the data set with spleen T cells (setting [3]), the inhibition at 30 µM stood at 50%. For the same compound, in the data set on spleen T cells (setting [4]), the inhibition at 50 µM turned out to be 72%.
In the case of `CCCCCCCCCCCCNC(=O)c1cccnc1Br` [Compound 76], the “Relative cell survival rate (%)” value in data set [1] (10 μM) is on record as 115%; in data set [1] (20 μM), 95%; in data set [1] (30 μM), 92%; in data set [1] (50 μM), 70%. The “Proliferation inhibition rate (%)” value in the data set on spleen T cells (Table 2, 10 μM, 3 days, relative to CD3/CD28+DMSO) amounted to 36%; in the data set on spleen T cells (Table 2, 30 μM, 3 days, relative to CD3/CD28+DMSO) it was 49%; in the data set with spleen T cells (Table 2, 50 μM, 3 days, relative to CD3/CD28+DMSO) it was 65%.
As to `CCCCCCCCCCCCNC(=O)c1ccccc1C(=O)NC1CCCCC1` [Compound 53], the “Relative cell survival rate (%)” value came to 96% in data set [1] (10 μM), 97% in data set [1] (20 μM), 98% in data set [1] (30 μM) and 95% in data set [1] (50 μM). The inhibition at 10 µM in the data set with spleen T cells (setting [2]) stood at 22%. Moreover, the inhibition at 30 µM in the data set on spleen T cells (setting [3]) amounted to 65%. Besides, the inhibition at 50 µM with spleen T cells (setting [4]) was 85%.
For `C=Cc1ccccc1C(=O)NCCCCCCCCCCCC` [Compound 57], the “Relative cell survival rate (%)” value in data set [1] (10 μM) is 108%; in data set [1] (20 μM), 108%; in data set [1] (30 μM), 104%; in data set [1] (50 μM), 101%. For the same compound, the inhibition at 10 µM in the data set with spleen T cells (setting [2]) came out at 93%. Besides, the inhibition at 30 µM in the data set on spleen T cells (setting [3]) turned out to be 100%. The inhibition at 50 µM in the data set with spleen T cells (setting [4]) is 100%.
`CCCCCCCCCCCCNC(=O)c1ccccc1C(=O)O` [Compound 37]: the “Relative cell survival rate (%)” value is given as 90% in data set [1] (10 μM), 90% in data set [1] (20 μM), 90% in data set [1] (30 μM) and 92% in data set [1] (50 μM). Also, the inhibition at 10 µM in the data set on spleen T cells (setting [2]) was 23%. Besides, the inhibition at 30 µM in the data set with spleen T cells (setting [3]) is 55%. Also, the inhibition at 50 µM in the data set with spleen T cells (setting [4]) is 65%.
Turning to `CCCCCCCCCCCCNS(=O)(=O)c1c(F)cccc1F` [Compound 54], the “Relative cell survival rate (%)” value in data set [1] (10 μM) was 89%; in data set [1] (20 μM), 83%; in data set [1] (30 μM), 77%; in data set [1] (50 μM), 76%. For the same compound, in the data set on spleen T cells (setting [2]), the inhibition at 10 µM was determined as 55%. For the same compound, the inhibition at 30 µM in the data set with spleen T cells (setting [3]) stood at 60%. Also, in the data set with spleen T cells (setting [4]), the inhibition at 50 µM is 77%.
With `CCCCCCCCCCCCNC(=O)c1ccccc1Nc1cccc(C)c1C` [Compound 51], the “Relative cell survival rate (%)” value stood at 99% in data set [1] (10 μM), 94% in data set [1] (20 μM), 92% in data set [1] (30 μM) and 90% in data set [1] (50 μM). The inhibition at 10 µM in the data set with spleen T cells (setting [2]) turned out to be 100%. For the same compound, in the data set with spleen T cells (setting [3]), the inhibition at 30 µM is 100%. Besides, the inhibition at 50 µM with spleen T cells (setting [4]) is 100%.
As to `CCCCCCCCNCCCNC(=O)c1nccnc1Cl` [Compound 82], the “Relative cell survival rate (%)” value in data set [1] (10 μM) came to 95%; in data set [1] (20 μM), 90%; in data set [1] (30 μM), 97%; in data set [1] (50 μM), 88%. Moreover, the inhibition at 10 µM in the data set on spleen T cells (setting [2]) was determined as 60%. The inhibition at 30 µM in the data set with spleen T cells (setting [3]) worked out at 80%. In addition, in the data set on spleen T cells (setting [4]), the inhibition at 50 µM came to 85%.
Take `CCCCCCCCCNC(=O)/C=C/c1ccccc1Br` [Compound 10]: the “Relative cell survival rate (%)” value in data set [1] (10 μM) was 91%; in data set [1] (20 μM), 88%; in data set [1] (30 μM) it was 85%; in data set [1] (50 μM) it was 83%. Further, the inhibition at 10 µM stood at 15% in the data set with spleen T cells (setting [2]) and 5% with spleen T cells (Table 3 (compounds not belonging to Formula 1), 10 μM). For the same compound, the inhibition at 30 µM in the data set on spleen T cells (setting [3]) worked out at 72%; in the data set with spleen T cells (Table 3 (compounds not belonging to Formula 1), 30 μM) it was 9%. Also, the inhibition at 50 µM in the data set with spleen T cells (setting [4]) was determined as 92%; in the data set with spleen T cells (Table 3 (compounds not belonging to Formula 1), 50 μM), 3%.
On to `CCCCCCCCCCCCNC(=O)c1cccnc1O` [Compound 70], for which the “Relative cell survival rate (%)” value in data set [1] (10 μM) stood at 119%; in data set [1] (20 μM) it was 122%; in data set [1] (30 μM) it was 124%; in data set [1] (50 μM), 125%. In addition, the inhibition at 10 µM in the data set with spleen T cells (setting [2]) is 29%. In the data set with spleen T cells (setting [3]), the inhibition at 30 µM was 78%. In the data set with spleen T cells (setting [4]), the inhibition at 50 µM amounted to 98%.
With `CCCCCCCCCCCCNC(=O)c1c(Cl)ccnc1Cl` [Compound 30], the “Relative cell survival rate (%)” value in data set [1] (10 μM) turned out to be 120%; in data set [1] (20 μM) it was 109%; in data set [1] (30 μM), 108%; in data set [1] (50 μM), 106%. In the data set on spleen T cells (setting [2]), the inhibition at 10 µM amounted to 16%. In the data set with spleen T cells (setting [3]), the inhibition at 30 µM was 41%. Besides, the inhibition at 50 µM in the data set with spleen T cells (setting [4]) came out at 55%.
